Blank lines part the entries; values can stand above or below the compound they belong to. Peptide text beside a SMILES is read from it. * marks the point of attachment. Cbz = O=C(OCc1ccccc1)*
How the values were obtained:
Top2b [1] = target: T1, Top2b (Homo sapiens, UniProt Q02880); assay: Immunoblot of Top2b in U2OS cells treated with Dex and/or MG132; assay type: cell-based
T1 construct: endogenous in cells; host or cells: U2OS
Protocol: (§1) FIG. 10. […] U2OS cells were treated with 100 mM Dex and/or 10 mM MG132, a proteosome inhibitor, for 2, 4, or 6 hours. Cell lysates were immunoblotted with anti-Top2a, Top2b, or actin antibodies.
(§2) The effect of Dex treatment of Top2a levels was also tested. Briefly, U2OS cells were treated with 100 mM Dex and/or 10 mM MG132 (a proteosome inhibitor) for 2, 4, or 6 hours. Cell lysates were immunoblotted with anti-Top2a, Top2b, or actin antibodies.

mouse heart = assay: Cardiac MRI for measuring cardiac function after chronic doxorubicin
Protocol: Before Cre induction, cardiac MRI scan was performed on each mouse to examine the baseline ejection fraction. Cardiomyocyte-specific Cre induction was carried out by treating mice with tamoxifen. […] Doxorubicin treatment (5 mg/kg, i.p., once a week for 5 weeks) was started 7 days after the second MRI scan. Two weeks after the last dose of doxorubicin, a third MRI scan was performed (FIG. 6a).
Every mouse in the EF experiments received 3 MRI scans, i.e., a baseline scan, a second scan 2 weeks after the end of tamoxifen treatment, and a third scan 2 weeks after the last dose of doxorubicin. […] Mice were anesthetized with isoflurane (2.5% in 97.5% O2), and scanned on a 7.0 T Biospec small animal scanner (Bruker Biospin Inc., Billerica, Mass.). Imaging gradients with 60 mm inner diameter (ID) were used with a 35 mm ID linear birdcage-style volume resonator. T1-weighted anatomic reference images were acquired using a three dimension (3D) fast low-angle shot (FLASH) gradient echo sequence. A retrospectively gated FLASH pulse sequence was used to acquire cardiac cine images with excellent contrast between bright blood and adjacent myocardium. To measure volumetric left ventricular ejection fraction (LVEF), at least 6 short axis images were scanned at 1 mm interval from the apex to the base of the heart. End-diastolic (ED) and end-systolic (ES) left ventricular volumes were obtained by the biplane area length method, and LVEF was calculated with the equation: [(ED-ES)/ED]/100.
Two weeks after completion of tamoxifen treatment mice were treated with doxorubicin or drug vehicle. Two cohorts of mice were treated with different schedules. […] To evaluate the chronic effect of doxorubicin on cardiac function, doxorubicin (5 mg/kg, i.p.) was administered once a week for 5 weeks, and cardiac function was examined 2 weeks after the last dose of doxorubicin by using MRI.
The effect of chronic doxorubicin treatment (5 mg/kg, ip, once a week for 5 weeks) was evaluated for its effect on ejection fraction.

Top2a = target: T2, Top2a (Homo sapiens, UniProt P11388); assay: Immunoblot of Top2a in U2OS cells treated with Dex and/or MG132; assay type: cell-based; conditions: 100 mM Dex for 2, 4, or 6 hours
T2 construct: endogenous in cells; host or cells: U2OS
Protocol: as §1, §2

heart sections = assay: Detection of apoptosis in heart sections (TUNEL assay); assay type: in vivo, mouse; conditions: dexrazoxane 100 mg/kg ip 8 hrs prior to doxorubicin 25 mg/kg ip; hearts 16 hrs after doxorubicin
Protocol: Apoptosis was detected by using TUNEL assay on heart sections. Heart harvest, sectioning, and storage were described above. Heart sections were warmed to room temperature before the apoptotic nuclei were stained by using a commercially available kit (In Situ Cell Death Detection Kit, Cat. No. 12156792910, Roche Applied Science). The entire staining procedures were performed according to the manufacturer's instructions. The nuclei were stained with DAPI (Sigma) before the slides were sealed and examined with an Olympus epifluorescence microscope (Model BX51). The apoptotic nuclei and the total nuclei per heart section were counted at 200× magnification. The apoptotic nuclei in 5 heart sections of each mouse were counted and averaged.
The cardio-protective effect of Dex against doxirubin-induced apoptosis was assessed in heart tissues. Dexrazoxane (100 mg/kg) was injected (ip) 8 hrs prior to doxorubicin (25 mg/kg) injection (ip). One group received only doxorubicin and a second group received only dexrazoxane. Hearts were harvested 16 hrs after doxorubicin treatment. The numbers of TUNEL-positive nuclei were counted in five fields in each heart section.

Top2b [2] = target: T3, Top2b (Mus musculus, UniProt Q64511); assay: Western blot of Top2b protein levels in heart tissue after dexrazoxane; assay type: in vivo; conditions: dexrazoxane 100 mg/kg i.p.
T3 construct: Frozen tissues were homogenized in lysis buffer and sonicated to extract proteins for western blotting; from tissue; host or cells: mouse heart
Protocol: Expression of Top2b was examined in the hearts of mice. After sacrifice, the heart was quickly removed and homogenized immediately in lysis buffer. After homogenization, the lysate was sonicated at 4° C. and an aliquot was removed for protein concentration measurement. The lysate was stored at −80° C. for western blot analysis. 20 μg of lysate proteins were electrophoresed and transferred to PVDF membranes. Blots were blocked with 5% non-fat dry milk, and incubated overnight at 4° C. with anti-Top2b antibody (Abcam). To detect mitochondrial proteins, the mitochondria were isolated from cardiomyocytes. The cardiomyocytes were isolated with a Langendorff perfusion system according to a published protocol3. Briefly, heart was removed and rinsed with ice-cold PBS twice before connecting to a Langendorff apparatus through the aorta. The heart was perfused first with perfusion buffer for 3 m at 37° C. (3 ml/min), then digestion buffer (enzyme-containing) buffer at 37° C. for 8-10 m. The heart was disintegrated manually and the tissue/cells were separated by using forceps. The tissue/cell suspension was incubated for another 3-5 m in digestion buffer, then triturate the cells gently using a 1 ml pipette before adding stopping buffer. After purification by centrifugation the mitochondria were isolated from the cardiomyocytes with a kit (Cat. No. MS853, Mitosciences) for separating mitochondria from nuclei and cytosol. The isolated mitochondria were homogenized in lysis buffer and sonicated before being stored at −80° C. until use. 20 μg of lysate proteins were electrophoresed and transferred to PVDF membranes. Blots were blocked incubated overnight at 4° C. with anti-Ndufa3 (Sigma), anti-Atp5a (Abcam) or anti-Sdha antibodies (Abcam). After incubation with HRP-conjugated secondary antibodies for 40 m at room temperature, the blots were detected with a luminol-based detection kit (ECL, GE Health Care).
To test the effect of dexrazoxane (Dex) on Top2b protein levels, mice were treated with dexrazoxane (100 mg/kg, i.p.). At different time points following treatment hearts were removed under anesthesia and perfused with PBS to remove blood. Each heart was cut into 10 pieces and snap-frozen in liquid nitrogen. Frozen tissues were homogenized in lysis buffer and sonicated to extract proteins for western blotting.

[3] = system: DNA double strand breaks in the heart; assay: Detection of DNA double strand breaks (γ-H2AX staining) in heart sections; assay type: in vivo, mouse; conditions: dexrazoxane 100 mg/kg ip 8 hrs prior to doxorubicin 25 mg/kg; hearts 16 hr after doxorubicin
Protocol: After mice were sacrificed, hearts were perfused with ice-cold PBS, quickly removed, embedded in OCT compound (Fisher Scientific), and snap-frozen in liquid nitrogen. The heart was sectioned to 5 μm-thick slices using a cryostat. Heart sections were stored at −80° C. until immunofluorescence staining was performed. Heart sections were rinsed with PBS at room temperature, fixed in BD Cytofix/Cytoperm solution (BD Biosciences) for 15 m, washed in PBS, and permeabilized in BD Perm/Wash solution for 30 m. Heart sections were first blocked with BSA (2 mg/ml) for 30 m, then incubated with an mouse monoclonal anti-γ-H2AX antibody conjugated with Alexa Fluor 555 (Clone N1-431, BD Biosciences) for 1 h. Nuclei were stained with DAPI (Sigma, 1 μg/ml PBS), and the slides were sealed for examination with an Olympus epifluorescence microscope (Model BX51). To quantify DSBs, the numbers of γ-H2AX-positive nuclei and the total nuclei were counted in 5 microscopic fields (400×) per section. For each mouse, five heart sections were counted to determine the percentage of γ-H2AX-positive nuclei.
To further confirm the cardio-protective effect of Dex, DNA double strand breaks were assessed in heart tissues. Dexrazoxane (100 mg/kg) was injected (ip) 8 hrs prior to doxorubicin (25 mg/kg) treatment. Hearts were harvested 16 hr after doxorubicin treatment. The percentage of γH2AX-positive nuclei was counted in 5 fields (400×) in each heart section. Five sections were counted in each heart to determine the average percentage of γH2AX-positive nuclei.

T3 sequence (Q64511 2-1612 limits assumed): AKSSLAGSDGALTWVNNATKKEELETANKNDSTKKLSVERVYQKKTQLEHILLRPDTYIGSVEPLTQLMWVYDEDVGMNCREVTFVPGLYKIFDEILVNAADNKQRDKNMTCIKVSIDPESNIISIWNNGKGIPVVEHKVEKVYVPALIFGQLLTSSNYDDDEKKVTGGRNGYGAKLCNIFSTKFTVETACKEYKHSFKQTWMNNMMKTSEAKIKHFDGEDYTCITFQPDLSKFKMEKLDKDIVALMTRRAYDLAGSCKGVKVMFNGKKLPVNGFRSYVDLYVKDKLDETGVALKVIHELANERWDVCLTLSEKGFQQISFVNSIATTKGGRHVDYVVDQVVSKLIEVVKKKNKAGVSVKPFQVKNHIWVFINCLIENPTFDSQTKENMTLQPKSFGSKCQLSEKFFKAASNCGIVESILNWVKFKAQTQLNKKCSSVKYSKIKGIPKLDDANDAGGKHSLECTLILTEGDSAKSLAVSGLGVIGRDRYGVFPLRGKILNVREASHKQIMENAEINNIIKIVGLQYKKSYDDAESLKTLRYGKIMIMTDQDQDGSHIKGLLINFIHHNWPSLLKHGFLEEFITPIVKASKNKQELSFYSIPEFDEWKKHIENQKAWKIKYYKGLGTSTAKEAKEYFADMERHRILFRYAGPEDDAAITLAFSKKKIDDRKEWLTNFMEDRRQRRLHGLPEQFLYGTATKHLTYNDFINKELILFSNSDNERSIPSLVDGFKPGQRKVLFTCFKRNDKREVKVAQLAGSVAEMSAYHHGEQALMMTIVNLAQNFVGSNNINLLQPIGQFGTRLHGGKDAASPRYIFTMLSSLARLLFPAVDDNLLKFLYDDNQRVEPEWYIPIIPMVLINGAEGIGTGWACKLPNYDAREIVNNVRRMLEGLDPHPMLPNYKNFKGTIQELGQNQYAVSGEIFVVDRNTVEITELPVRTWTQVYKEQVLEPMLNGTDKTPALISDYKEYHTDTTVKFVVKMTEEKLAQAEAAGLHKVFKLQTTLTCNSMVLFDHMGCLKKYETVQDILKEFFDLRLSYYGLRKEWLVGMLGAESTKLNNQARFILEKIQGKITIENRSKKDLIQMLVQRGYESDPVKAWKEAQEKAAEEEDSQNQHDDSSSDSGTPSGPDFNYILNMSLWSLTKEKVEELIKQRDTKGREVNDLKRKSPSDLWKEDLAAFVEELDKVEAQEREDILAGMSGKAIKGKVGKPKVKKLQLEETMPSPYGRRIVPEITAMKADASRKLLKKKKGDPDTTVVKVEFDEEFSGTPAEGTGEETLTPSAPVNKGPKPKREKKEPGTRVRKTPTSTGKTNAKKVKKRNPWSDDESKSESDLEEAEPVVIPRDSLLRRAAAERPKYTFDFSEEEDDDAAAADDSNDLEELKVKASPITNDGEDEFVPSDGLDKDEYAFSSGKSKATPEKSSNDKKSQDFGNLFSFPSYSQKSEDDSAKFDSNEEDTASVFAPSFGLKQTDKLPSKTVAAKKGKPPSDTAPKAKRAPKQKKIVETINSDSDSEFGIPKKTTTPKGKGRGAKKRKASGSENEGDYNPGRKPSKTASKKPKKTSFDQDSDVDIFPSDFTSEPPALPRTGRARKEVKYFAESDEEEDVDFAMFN
T1 sequence (Q02880 2-1626 limits assumed): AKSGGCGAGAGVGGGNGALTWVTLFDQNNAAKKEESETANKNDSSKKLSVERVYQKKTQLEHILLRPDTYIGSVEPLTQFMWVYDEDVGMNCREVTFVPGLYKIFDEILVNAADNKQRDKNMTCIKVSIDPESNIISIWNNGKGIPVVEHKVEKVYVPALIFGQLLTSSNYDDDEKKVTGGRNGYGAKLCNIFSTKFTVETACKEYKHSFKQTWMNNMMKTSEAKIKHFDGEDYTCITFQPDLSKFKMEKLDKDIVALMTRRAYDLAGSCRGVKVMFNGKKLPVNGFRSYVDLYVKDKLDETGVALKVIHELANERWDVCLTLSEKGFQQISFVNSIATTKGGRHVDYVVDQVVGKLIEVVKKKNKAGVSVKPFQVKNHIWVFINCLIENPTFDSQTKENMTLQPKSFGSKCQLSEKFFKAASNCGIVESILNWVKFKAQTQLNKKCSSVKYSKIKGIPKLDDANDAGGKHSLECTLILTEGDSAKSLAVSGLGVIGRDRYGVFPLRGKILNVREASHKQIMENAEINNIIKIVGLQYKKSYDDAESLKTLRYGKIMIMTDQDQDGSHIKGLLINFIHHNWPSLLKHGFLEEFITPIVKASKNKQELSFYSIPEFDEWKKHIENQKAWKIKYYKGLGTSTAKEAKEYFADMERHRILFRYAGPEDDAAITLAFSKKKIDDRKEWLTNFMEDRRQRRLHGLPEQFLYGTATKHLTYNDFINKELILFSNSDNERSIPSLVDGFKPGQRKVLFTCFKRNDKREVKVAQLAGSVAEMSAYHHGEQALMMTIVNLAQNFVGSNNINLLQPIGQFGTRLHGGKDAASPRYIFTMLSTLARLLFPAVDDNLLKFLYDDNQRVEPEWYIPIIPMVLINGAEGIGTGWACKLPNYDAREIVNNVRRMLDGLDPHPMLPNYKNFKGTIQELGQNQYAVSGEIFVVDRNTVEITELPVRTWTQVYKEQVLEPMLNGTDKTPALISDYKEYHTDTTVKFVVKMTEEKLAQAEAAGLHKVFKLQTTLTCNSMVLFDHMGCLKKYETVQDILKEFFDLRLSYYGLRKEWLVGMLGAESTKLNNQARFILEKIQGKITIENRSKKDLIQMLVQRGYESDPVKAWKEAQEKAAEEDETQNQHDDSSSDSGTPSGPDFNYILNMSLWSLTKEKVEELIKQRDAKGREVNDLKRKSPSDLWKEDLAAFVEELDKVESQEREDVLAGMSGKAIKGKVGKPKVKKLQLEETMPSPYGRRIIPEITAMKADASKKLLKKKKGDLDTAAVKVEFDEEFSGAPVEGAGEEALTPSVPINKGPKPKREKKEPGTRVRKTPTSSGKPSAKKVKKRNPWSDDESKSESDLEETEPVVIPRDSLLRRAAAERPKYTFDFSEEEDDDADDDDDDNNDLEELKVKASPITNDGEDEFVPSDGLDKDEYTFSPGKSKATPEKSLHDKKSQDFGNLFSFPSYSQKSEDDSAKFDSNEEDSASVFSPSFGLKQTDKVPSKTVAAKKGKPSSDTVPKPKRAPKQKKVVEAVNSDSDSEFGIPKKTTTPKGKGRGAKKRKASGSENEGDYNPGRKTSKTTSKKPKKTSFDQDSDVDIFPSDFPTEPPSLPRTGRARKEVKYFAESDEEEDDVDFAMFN
T2 sequence (P11388 whole entry): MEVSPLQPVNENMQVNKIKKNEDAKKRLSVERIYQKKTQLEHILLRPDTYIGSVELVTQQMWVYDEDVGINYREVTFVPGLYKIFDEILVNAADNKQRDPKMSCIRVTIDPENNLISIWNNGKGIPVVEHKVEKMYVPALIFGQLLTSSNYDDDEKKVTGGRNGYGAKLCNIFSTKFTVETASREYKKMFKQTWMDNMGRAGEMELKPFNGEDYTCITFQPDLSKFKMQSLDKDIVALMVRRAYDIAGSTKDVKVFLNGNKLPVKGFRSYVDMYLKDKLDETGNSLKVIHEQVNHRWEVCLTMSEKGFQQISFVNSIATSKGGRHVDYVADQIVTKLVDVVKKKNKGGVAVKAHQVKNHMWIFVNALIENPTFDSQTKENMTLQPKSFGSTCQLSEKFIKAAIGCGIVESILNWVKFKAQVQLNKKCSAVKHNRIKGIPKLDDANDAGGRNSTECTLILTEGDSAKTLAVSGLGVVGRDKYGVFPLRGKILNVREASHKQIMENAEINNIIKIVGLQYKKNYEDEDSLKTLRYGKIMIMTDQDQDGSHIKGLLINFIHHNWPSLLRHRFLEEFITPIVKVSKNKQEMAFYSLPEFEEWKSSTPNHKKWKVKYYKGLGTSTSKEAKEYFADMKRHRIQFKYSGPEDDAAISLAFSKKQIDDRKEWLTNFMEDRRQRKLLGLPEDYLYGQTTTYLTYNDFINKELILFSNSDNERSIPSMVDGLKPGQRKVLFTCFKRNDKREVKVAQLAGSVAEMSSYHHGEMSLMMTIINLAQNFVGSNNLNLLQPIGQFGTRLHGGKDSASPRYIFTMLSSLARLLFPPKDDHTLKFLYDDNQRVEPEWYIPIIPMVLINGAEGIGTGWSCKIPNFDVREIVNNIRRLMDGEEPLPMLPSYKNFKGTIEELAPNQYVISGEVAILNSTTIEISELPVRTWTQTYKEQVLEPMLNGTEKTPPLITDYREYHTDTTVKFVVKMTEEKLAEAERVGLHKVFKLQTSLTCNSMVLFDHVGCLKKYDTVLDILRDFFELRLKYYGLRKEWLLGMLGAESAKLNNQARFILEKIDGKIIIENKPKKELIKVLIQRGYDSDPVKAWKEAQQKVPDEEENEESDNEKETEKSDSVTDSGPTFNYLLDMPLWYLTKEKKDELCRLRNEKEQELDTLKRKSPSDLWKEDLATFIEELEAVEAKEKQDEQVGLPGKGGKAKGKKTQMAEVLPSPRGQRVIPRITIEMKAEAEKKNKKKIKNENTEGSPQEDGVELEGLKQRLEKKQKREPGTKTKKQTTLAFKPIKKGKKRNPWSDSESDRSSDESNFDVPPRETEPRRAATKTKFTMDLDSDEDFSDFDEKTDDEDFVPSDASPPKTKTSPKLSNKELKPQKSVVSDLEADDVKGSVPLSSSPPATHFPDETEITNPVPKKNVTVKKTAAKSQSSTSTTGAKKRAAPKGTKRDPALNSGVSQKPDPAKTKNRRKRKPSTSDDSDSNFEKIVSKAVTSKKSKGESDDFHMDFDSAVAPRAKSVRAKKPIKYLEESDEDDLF

SMILES: CC(C)C[C@@H](C=O)NC(=O)[C@H](CC(C)C)NC(=O)[C@H](CC(C)C)NC(=O)OCc1ccccc1 [MG132] (Cbz-Leu-Leu-Leu-aldehyde)
Effect on Dex-mediated Top2b degradation (Top2b [1]; 10 mM MG132 with 100 mM Dex, 2, 4, or 6 hours): inhibited

Effect on ejection fractions (mouse heart; tamoxifen 25 mg/kg gavage once a day for 5 days, all three Top2b genotype groups): did not significantly affect
SMILES: CC/C(=C(\c1ccccc1)c1ccc(OCCN(C)C)cc1)c1ccccc1 [Tamoxifen, tamoxifen]

Degradation of Top2a (Top2a): but not Top2a
Degradation of Top2b (Top2b [1]; 100 mM Dex for 2, 4, or 6 hours): caused degradation of Top2b
Ejection fraction, Dex alone (mouse heart; mice, dexrazoxane 100 mg/kg ip alone): unchanged
Time point at which Top2b levels begin to recover (Top2b [2]): 12 h
Top2b protein level in the heart at 6 hours (Top2b [2]; 6 hours after therapy): nearly undetectable
Top2b protein level in the heart at 24 hours (Top2b [2]; 24 hours): still noticeably reduced
Top2b protein levels in the heart (Top2b [2]; time course): greatly reduced
SMILES: C[C@@H](CN1CC(=O)NC(=O)C1)N1CC(=O)NC(=O)C1 [dexrazoxane]
Protection against doxorubicin-induced apoptosis in the heart (TUNEL-positive nuclei) (heart sections): protects against doxorubicin-induced apoptosis
Ejection fraction, Dex in combination with doxorubicin (mouse heart; dexrazoxane 100 mg/kg ip 8 hrs prior to doxorubicin 5 mg/kg ip once a week for 5 weeks): unchanged
Protection against doxorubicin-induced DNA double strand breaks in the heart (γH2AX-positive nuclei) [3]: protects against doxorubicin-induced DNA double strand breaks

— patent US9169509B2, “Topoisomerase 2b as a predictor of susceptibility to anthracycline-induced cardiotoxicity” (Board of Regents, The University of Texas System, priority 2013, dated 2015)
